Measurements published in ChEMBL document CHEMBL1165979, “Peptide fragmentation as an approach in modeling of an active peptide and designing a competitive inhibitory peptide for HMG-CoA reductase” (Bioorg Med Chem, 2010).
Non-standard residues stand in square brackets, D forms with d. Residues, ends and D or L forms follow the SMILES beside them. Phe(4-F) = N[C@@H](Cc1ccc(F)cc1)C(=O)O

The compounds below were run against T1, 3-hydroxy-3-methylglutaryl-coenzyme A reductase (Homo sapiens, UniProt P04035) (assay: Inhibition of HMG-CoA reductase by spectrophotometry). Conditions: not given; call rule not given here.
T1 sequence (P04035 whole entry): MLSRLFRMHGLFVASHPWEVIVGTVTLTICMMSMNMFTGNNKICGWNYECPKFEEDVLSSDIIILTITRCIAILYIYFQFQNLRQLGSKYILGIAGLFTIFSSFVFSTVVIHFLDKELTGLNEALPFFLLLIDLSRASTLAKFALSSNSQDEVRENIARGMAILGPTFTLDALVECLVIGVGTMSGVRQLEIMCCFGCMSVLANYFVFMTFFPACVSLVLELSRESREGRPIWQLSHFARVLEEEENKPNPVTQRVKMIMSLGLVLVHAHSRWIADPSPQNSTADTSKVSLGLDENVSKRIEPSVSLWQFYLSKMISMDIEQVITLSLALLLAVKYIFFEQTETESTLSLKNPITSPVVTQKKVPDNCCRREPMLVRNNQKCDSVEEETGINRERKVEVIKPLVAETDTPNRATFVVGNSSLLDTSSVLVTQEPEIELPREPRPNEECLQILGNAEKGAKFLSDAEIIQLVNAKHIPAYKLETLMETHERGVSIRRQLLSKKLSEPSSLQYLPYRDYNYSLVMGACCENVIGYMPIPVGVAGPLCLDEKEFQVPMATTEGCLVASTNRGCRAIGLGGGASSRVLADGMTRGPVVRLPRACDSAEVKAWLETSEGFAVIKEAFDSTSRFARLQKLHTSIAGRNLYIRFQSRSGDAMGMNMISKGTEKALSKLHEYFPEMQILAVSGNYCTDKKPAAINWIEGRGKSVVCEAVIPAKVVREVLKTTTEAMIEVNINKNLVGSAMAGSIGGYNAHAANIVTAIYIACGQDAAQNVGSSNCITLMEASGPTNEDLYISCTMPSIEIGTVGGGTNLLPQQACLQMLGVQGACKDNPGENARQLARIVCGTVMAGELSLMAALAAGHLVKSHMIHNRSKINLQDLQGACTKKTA
In the case of `NCC(=O)N[C@@H](Cc1ccc(F)cc1)C(=O)N1CCC[C@H]1C(=O)NCC(=O)NCC(=O)NCC(=O)O` (H-G[Phe(4-F)]PGGG-OH), the IC50 is reported as “Not Active”.
With H-DFGYVAG-OH the IC50 was “Not Active”.

Same assay, conditions: read-out: IC50
`CC(C)[C@H](NC(=O)[C@H](Cc1ccc(F)cc1)NC(=O)CNC(=O)[C@@H](N)Cc1ccccc1)C(=O)N[C@@H](C)C(=O)N[C@@H](CCC(=O)O)C(=O)O` (H-FG[Phe(4-F)]VAE-OH) was tested, and the IC50 was 8.52 µM.
With `NCC(=O)N[C@@H](Cc1ccc(F)cc1)C(=O)N1CCC[C@H]1C(=O)N[C@@H](CC(=O)O)C(=O)NCC(=O)NCC(=O)O` (H-G[Phe(4-F)]PDGG-OH) the IC50 was 6.95 µM.
Work on `NCC(=O)N[C@@H](Cc1ccc(F)cc1)C(=O)N1CCC[C@H]1C(=O)N[C@@H](CCC(=O)O)C(=O)NCC(=O)NCC(=O)O` (H-G[Phe(4-F)]PEGG-OH) yielded an IC50 of 0.75 µM.
Work on `C[C@@H](O)[C@H](NC(=O)[C@@H]1CCCN1C(=O)[C@H](Cc1ccc(F)cc1)NC(=O)CN)C(=O)NCC(=O)NCC(=O)O` (H-G[Phe(4-F)]PTGG-OH) yielded an IC50 of 4.82 µM.
In the case of `CC[C@H](C)[C@H](N)C(=O)N[C@@H](C)C(=O)N[C@H](C(=O)N[C@@H](CCC(=O)O)C(=O)O)C(C)C` (H-IAVE-OH), the IC50 is reported as 75.2 µM.
`CC[C@H](C)[C@H](N)C(=O)N[C@H](C(=O)N[C@@H](C)C(=O)N[C@@H](CCC(=O)O)C(=O)O)C(C)C` (H-IVAE-OH) gave an IC50 of 52.7 µM.
`CC(C)C[C@H](N)C(=O)N1CCC[C@H]1C(=O)N[C@@H](Cc1ccc(O)cc1)C(=O)N1CCC[C@H]1C(=O)O` (H-LPYP-OH) was tested, and the IC50 was 485 µM.
`CC(C)[C@H](NC(=O)[C@H](C)NC(=O)[C@@H](N)Cc1ccc(O)cc1)C(=O)N[C@@H](CCC(=O)O)C(=O)O` (H-YAVE-OH) was tested, and the IC50 was 44.8 µM.
`CC(C)[C@H](NC(=O)[C@@H](N)Cc1ccc(O)cc1)C(=O)N[C@@H](C)C(=O)N[C@@H](CCC(=O)O)C(=O)O` (H-YVAE-OH) was tested, and the IC50 was 41.2 µM.
`CC(C)[C@H](NC(=O)[C@@H](N)Cc1ccc(F)cc1)C(=O)N[C@@H](C)C(=O)N[C@@H](CCC(=O)O)C(=O)O` (H-[Phe(4-F)]VAE-OH) was tested, and the IC50 was 3.84 µM.
H-DFGYVAE-OH gave an IC50 of 0.16 µM.
With H-EFGYVAE-OH the IC50 was 0.24 µM.
H-FFYVAE-OH gave an IC50 of 2.56 µM.
H-FGYVAE-OH showed an IC50 of 0.41 µM.
H-FPYVAE-OH showed an IC50 of 1.47 µM.
For H-GFGYVAE-OH, the IC50 was 0.27 µM.
With H-GFPDGG-OH the IC50 was 1.52 µM.
In the case of H-GFPEGG-OH, the IC50 is reported as 1.78 µM.
Compound H-GFPTGG-OH has an IC50 of 16.9 µM.
With H-GLPDGG-OH the IC50 was 22.3 µM.
For H-GLPEGG-OH, the IC50 was 27.3 µM.
H-GLPTGG-OH gave an IC50 of 19.4 µM.
H-IAVPGEVA-OH gave an IC50 of 201 µM.
H-IAVPTGVA-OH gave an IC50 of 152 µM.
With H-TFGYVAE-OH the IC50 was 0.26 µM.

What follows are compounds tested against T1, 3-hydroxy-3-methylglutaryl-coenzyme A reductase (assay: Competitive inhibition of HMG-CoA reductase by Dixon plot analysis). Conditions: not given.
`C[C@@H](O)[C@H](NC(=O)[C@@H]1CCCN1C(=O)[C@H](Cc1ccc(F)cc1)NC(=O)CN)C(=O)NCC(=O)NCC(=O)O` (H-G[Phe(4-F)]PTGG-OH) gave a Ki of 0.26 µM.
In the case of H-DFGYVAE-OH, the Ki is reported as 0.051 µM.
